Laboratory results: patent US20100160454A1, “ANTIMICROBIAL AGENTS, COMPOSITIONS AND PRODUCTS CONTAINING THE SAME, AND METHODS OF USING THE COMPOSITIONS AND PRODUCTS” (Eastman Chemical Company, priority 2008, published 2010)

How the values were obtained:
Test in all cases: Challenge testing against pathogenic fungi, growth rating in broth tubes
Type in all cases: cell-based
Design in all cases: key: 0: No visible growth; 1: Some growth in tube; 2: Moderate growth in tube; 3: Good growth in tube; 4: Extreme growth in tube
[1] = system: Malassezia furfur (ATCC 96809)
Procedure: (§1) Both Microsporum canis and Trichophyton rubrum were grown on Sabouraud dextrose broth, while Malassezia fufur was grown in Sabouraud dextrose broth supplemented with 2% (v/v) of olive oil and 0.2% (v/v) of Tween™ 80; incubation was at 22°±2° C. under continuous agitation by stirring for 10 days. The organisms were grown to a density of between 1.0×10^3 to 1.0×10^4 cfu/g. The actual inoculation cell density of these challenges were determined by diluting in sterile buffer water and (spread-plate method) plating for enumeration.
(§2) Challenge organisms were used to inoculate tubes of 1,4-CHDM-D90 test concentrations prepared in Sabouraud dextrose broth (or Sabouraud dextrose broth supplemented with olive oil-Tween™ 80 with M. furfur). The inoculations were in the amount of 1.5 mL aliquots of each culture with static incubation at 22±2° C. Subcultures were made at 3-, 14- and 30-day increments. All challenges were conducted in triplicate. In the case of M. canis, the growth response was assessed by the visual presence/absence of growth in the tubes; in the case of T. rubrum, a respiratory (redox) dye (0.2% w/v aqueous INT solution: 2-[4-iodophenyl)-3-4-nitrophenyl]-5-phenyl tetrazolium chloride) was added to the tubes, turning red if the organism was viable; and, finally, in the case of M. furfur, the growth response was assessed based upon pellicle formation in the tubes at the meniscus. The test formulations and challenge test results, as well as 30-day MICs (Minimum Inhibitory Concentration), are in Tables 7-9 for the three organisms using the following growth rating system:
(§3) • 0: No visible growth • 1: Some growth in tube • 2: Moderate growth in tube • 3: Good growth in tube • 4: Extreme growth in tube

[2] = system: Microsporum canis (ATTC 9084)
Procedure: as §1, §2, §3

[3] = system: Trichophyton rubrum (ATCC 10218)
Procedure: as §1, §2, §3

| Structure (SMILES) | M. furfur growth rating, 3 day ([1]; 0.5% weight/volume) | M. furfur growth rating, 14 day ([1]; 0.5% weight/volume) | M. furfur growth rating, 30 day ([1]; 0.5% weight/volume) | M. furfur growth rating, 3 day ([1]; 1.25% weight/volume) | M. furfur growth rating, 14 day ([1]; 1.25% weight/volume) | M. furfur growth rating, 30 day ([1]; 1.25% weight/volume) | M. furfur growth rating, 3 day ([1]; 2.5% weight/volume) | M. furfur growth rating, 14 day ([1]; 2.5% weight/volume) | M. furfur growth rating, 30 day ([1]; 2.5% weight/volume) | M. furfur growth rating, 3 day ([1]; 5.0% weight/volume) | M. furfur growth rating, 14 day ([1]; 5.0% weight/volume) | M. furfur growth rating, 30 day ([1]; 5.0% weight/volume) | M. canis growth rating, 3 day ([2]; 0.5% weight/volume) | M. canis growth rating, 14 day ([2]; 0.5% weight/volume) | M. canis growth rating, 30 day ([2]; 0.5% weight/volume) | M. canis growth rating, 3 day ([2]; 1.25% weight/volume) | M. canis growth rating, 14 day ([2]; 1.25% weight/volume) | M. canis growth rating, 30 day ([2]; 1.25% weight/volume) | M. canis growth rating, 3 day ([2]; 2.5% weight/volume) | M. canis growth rating, 14 day ([2]; 2.5% weight/volume) | other results |
| --- | --- | --- | --- | --- | --- | --- | --- | --- | --- | --- | --- | --- | --- | --- | --- | --- | --- | --- | --- | --- | --- |
| OCC1CCCC(CO)C1 (stereo not drawn) [1,3-CHDM, 1,3-cyclohexanedimethanol] | 0 | 1 | 3 | 0 | 2 | 3 | 0 | 0 | 0 | 0 | 2 | 3 | 2 | 1 | 1 | 2 | 1 | 1 | 0 | 0 | M. canis growth rating, 30 day ([2]; 2.5% weight/volume): 0; M. canis growth rating, 3 day ([2]; 5.0% weight/volume): 2; M. canis growth rating, 14 day ([2]; 5.0% weight/volume): 1; M. canis growth rating, 30 day ([2]; 5.0% weight/volume): 1; T. rubrum growth rating, 3 day ([3]; 0.5% weight/volume): 0; T. rubrum growth rating, 14 day ([3]; 0.5% weight/volume): 2; T. rubrum growth rating, 30 day ([3]; 0.5% weight/volume): 1; T. rubrum growth rating, 3 day ([3]; 1.25% weight/volume): 1; T. rubrum growth rating, 14 day ([3]; 1.25% weight/volume): 0; T. rubrum growth rating, 30 day ([3]; 1.25% weight/volume): 0; T. rubrum growth rating, 3 day ([3]; 2.5% weight/volume): 0; T. rubrum growth rating, 14 day ([3]; 2.5% weight/volume): 0; T. rubrum growth rating, 30 day ([3]; 2.5% weight/volume): 0; T. rubrum growth rating, 3 day ([3]; 5.0% weight/volume): 2; T. rubrum growth rating, 14 day ([3]; 5.0% weight/volume): 0; T. rubrum growth rating, 30 day ([3]; 5.0% weight/volume): 0 |
| OCC1CCCCC1CO (stereo not drawn) [1,2-CHDM, 1,2-cyclohexanedimethanol] | 0 | 0 | 0 | 0 | 0 | 0 | 0 | 0 | 0 | 0 | 0 | 0 | 2 | 1 | 1 | 1 | 0 | 0 | 0 | 0 | M. canis growth rating, 30 day ([2]; 2.5% weight/volume): 0; M. canis growth rating, 3 day ([2]; 5.0% weight/volume): 0; M. canis growth rating, 14 day ([2]; 5.0% weight/volume): 0; M. canis growth rating, 30 day ([2]; 5.0% weight/volume): 0; T. rubrum growth rating, 3 day ([3]; 0.5% weight/volume): 0; T. rubrum growth rating, 14 day ([3]; 0.5% weight/volume): 0; T. rubrum growth rating, 30 day ([3]; 0.5% weight/volume): 0; T. rubrum growth rating, 3 day ([3]; 1.25% weight/volume): 0; T. rubrum growth rating, 14 day ([3]; 1.25% weight/volume): 0; T. rubrum growth rating, 30 day ([3]; 1.25% weight/volume): 0; T. rubrum growth rating, 3 day ([3]; 2.5% weight/volume): 1; T. rubrum growth rating, 14 day ([3]; 2.5% weight/volume): 0; T. rubrum growth rating, 30 day ([3]; 2.5% weight/volume): 0; T. rubrum growth rating, 3 day ([3]; 5.0% weight/volume): 0; T. rubrum growth rating, 14 day ([3]; 5.0% weight/volume): 0; T. rubrum growth rating, 30 day ([3]; 5.0% weight/volume): 0 |
| CC1(C)C(O)C(C)(C)C1O (stereo not drawn) [TMCBD, 2,2,4,4-tetramethyl-1,3-cyclobutanediol] | 0 | 1 | 2 | 0 | 1 | 2 | 0 | 0 | 0 | 0 | 0 | 0 | 2 | 1 | 1 | 2 | 1 | 0 | 2 | 1 | M. canis growth rating, 30 day ([2]; 2.5% weight/volume): 1; M. canis growth rating, 3 day ([2]; 5.0% weight/volume): 2; M. canis growth rating, 14 day ([2]; 5.0% weight/volume): 1; M. canis growth rating, 30 day ([2]; 5.0% weight/volume): 1; T. rubrum growth rating, 3 day ([3]; 0.5% weight/volume): 1; T. rubrum growth rating, 14 day ([3]; 0.5% weight/volume): 1; T. rubrum growth rating, 30 day ([3]; 0.5% weight/volume): 0; T. rubrum growth rating, 3 day ([3]; 1.25% weight/volume): 0; T. rubrum growth rating, 14 day ([3]; 1.25% weight/volume): 0; T. rubrum growth rating, 30 day ([3]; 1.25% weight/volume): 1; T. rubrum growth rating, 3 day ([3]; 2.5% weight/volume): 0; T. rubrum growth rating, 14 day ([3]; 2.5% weight/volume): 0; T. rubrum growth rating, 30 day ([3]; 2.5% weight/volume): 0; T. rubrum growth rating, 3 day ([3]; 5.0% weight/volume): 0; T. rubrum growth rating, 14 day ([3]; 5.0% weight/volume): 0; T. rubrum growth rating, 30 day ([3]; 5.0% weight/volume): 0 |
| O=C([O-])CN(CCN(CC(=O)[O-])CC(=O)O)CC(=O)O.[Na+].[Na+] [EDTA, Na2EDTA] | 0 | 0 | 0 | 0 | 0 | 0 | 0 | 0 | 0 | 0 | 0 | 0 | 2 | 1 | 0 | 2 | 1 | 0 | 2 | 1 | M. canis growth rating, 30 day ([2]; 2.5% weight/volume): 0; M. canis growth rating, 3 day ([2]; 5.0% weight/volume): 2; M. canis growth rating, 14 day ([2]; 5.0% weight/volume): 0; M. canis growth rating, 30 day ([2]; 5.0% weight/volume): 0; T. rubrum growth rating, 3 day ([3]; 0.5% weight/volume): 1; T. rubrum growth rating, 14 day ([3]; 0.5% weight/volume): 0; T. rubrum growth rating, 30 day ([3]; 0.5% weight/volume): 0; T. rubrum growth rating, 3 day ([3]; 1.25% weight/volume): 0; T. rubrum growth rating, 14 day ([3]; 1.25% weight/volume): 0; T. rubrum growth rating, 30 day ([3]; 1.25% weight/volume): 0; T. rubrum growth rating, 3 day ([3]; 2.5% weight/volume): 1; T. rubrum growth rating, 14 day ([3]; 2.5% weight/volume): 0; T. rubrum growth rating, 30 day ([3]; 2.5% weight/volume): 0; T. rubrum growth rating, 3 day ([3]; 5.0% weight/volume): 1; T. rubrum growth rating, 14 day ([3]; 5.0% weight/volume): 0; T. rubrum growth rating, 30 day ([3]; 5.0% weight/volume): 0 |
